Results as given in paper PMC7912796, “Design, Synthesis, Anticancer Activity, and Solid Lipid Nanoparticle Formulation of Indole- and Benzimidazole-Based Compounds as Pro-Apoptotic Agents Targeting Bcl-2 Protein” (Pharmaceuticals, 2021).

What was measured:
Assay type in all cases: cell-based, human
Bcl-2 gene = assay: RT-PCR apoptotic gene expression; settings: 13 μM, 48 h, MDA-MB-231, vs negative control
Experimental: Dissection of the compound’s proapoptotic activity was proceeded through gene expression analysis for key genes, controlling apoptosis pathway, as well as protein level determination. Following 8b treatment for 48 h, alterations within MDA-MB-231/breast cancer cell expression of Bcl-2, Bax, caspase-3, -8, and -9 genes, as well as cytochrome c and class-III β-tubulin proteins levels were determined using real-time polymerase chain reaction (RT-PCR) or ELISA technique, respectively. Typically, Bcl-2, Bax, caspases, and cytochrome c proteins contributes within the regulation of apoptotic signaling. Acting as apoptotic activator (Bax) or inhibitor (Bcl-2), the Bcl-2 family proteins play their significant role in apoptosis. The caspases family are cysteine proteases being classified as either executioners; caspase-3, -6, or -7 or initiators; caspase-8 and -9 [36]. Regrading caspase-8, its activation is proceeded through extrinsic death-receptor dependent apoptotic pathway, while, caspase-9 activation is within the event of intrinsic mitochondrial cytochrome c leakage. Additionally, participation of activated caspase-3 is to be essential for […] activation. Class-III β-tubulin are pure prognostic biomarker within cancer patients being associated with aggressive phenotypic/drug-resistant cancers and part of complicated pro-survival molecular pathway, being triggered via poor nutrient supply and hypoxia.
Quantitative Real-time PCR was operated on Rotor-Gene Q® PCR system as a reader (Cat.#: 204774; Qiagen^TM, Milan, Italy) via GenElute® RNA extraction/SIGMA PCR kit (Cat.#: REI10; Qiagen^TM, Milan, Italy)^86. Cells were treated with IC50 of 8b for 48 h and total RNA was extracted from the non-treated and treated cells. RNA purity was assessed via Nanodrop® 2000/2000c UV-Vis spectrophotometer (Thermo-Scientific^TM, Bilbao, Spain). Synthesis of cDNA was proceeded using QuantiNova® Reverse Transcription Kit (Cat.#: RTN30; Qiagen^TM, Milan, Italy) and the subsequent PCR tests were conducted via single tubes. Specific forward/reverse primer pairs were selected for investigated (Casp-3, -8, -9, BAX, and Bcl2). Obtained results were expressed within Cycle threshold (Ct) values, while relative quantitation of each measured gene was assessed based on ΔΔCt calculations as represented in Table 5 [79].

A549/lung adenocarcinoma = assay: Morphological assessment; settings: 0.1-100 µM (5-FU 100 µM), 48 h, phase-contrast microscope
[1] = test system: MDA-MB-231/breast cancer cells; assay: Morphological assessment; settings: 0.1-100 µM, 48 h, phase-contrast microscope
Experimental: The impact of 8b on cancerous cellular morphology was evaluated over different concentrations following 48 h exposure time. In MDA-MB-231/breast cancer cells, normal membrane integrity and control group nucleus morphology was depicted for cells within vehicle negative control group (Figure 4A). […] At 100 µM concentration, the cell number became highly declined and great loss of cellular polyhedral shape was observed as cells acquired the tentacled spindle-shaped morphology (Figure 4E). These morphological changes were more drastic with 8b as compared to 5-FU for similar concentrations (100 µM) (Figure 4F).
The impact of this tested final compounds on the morphology of treated MDA-MB-231/breast cancer cell line was investigated, through planting cells within 6-well plates and subsequently incubated with 0.1, 1, 10, 100 µM of 8b […]. Variations within the cells’ morphology were identified via Olympus®-CKX53 Inverted Metallurgical light microscope (Olympus^TM, Center Valley, PA, USA), snapped by Olympus® Digital Camera, and analyzed by OLYMPUS® Stream image analysis software.

[2] = test system: MDA-MB-231/breast cancer cell line; assay: DNA fragmentation assay; settings: 13 µM, 48 h and 72 h, agarose gel ladder
Experimental: In order to delineate the mechanistic aspects of MDA-MB-231/breast cancer cell death mediated by 8b, the DNA fragmentation assay was conducted as being highly characteristic for apoptosis. […] A typical ladder pattern of internucleosomal fragmentation was observed from cell homogenates within both incubation periods (Figure 8). Such findings further confirm the significant activity of 8b as a potent inducer of apoptosis.
DNA isolation was performed through planting MDA-MB-231/breast cells at 0.16x10^6 density, prior to incubation at 37 °C/humidified 5% CO2 overnight. Following 48 h exposure time, cells were harvested, washed and lysed via DNA-extraction buffer at 37 °C overnight. The lysate was incubated after that with 100 μg/mL […] (Cat.#: 9097.1; Carl-Roth^TM, Karlsruhe, Germany) at 37 °C for 2 h, which was followed by three extraction processes using phenol:CHCl3 (1:1 v/v) (Bioflux^TM, Selangor, Malaysia). A consequent re-extraction was done using CHCl3 and then the organic solvent was centrifuged for 5 min at 12,000 rpm within 4 °C conditions. Extracted DNA was precipitated via ice-cold 3 M sodium acetate and absolute ethanol for 1 h at –20 °C, which was then proceeded through centrifugation (15 min—at 12,000 rpm—4 °C). […]

[3] = test system: MDA-MB-231/breast cancer cell line; assay: Apoptosis rate analysis, Annexin-V/FACS; settings: 13 µM, 48 h
Source text: Using flow cytometry, apoptosis rate analysis was proceeded through staining the cell surface-translocating phosphatidylserine with Annexin-V fluorescent conjugate, the calcium-dependent phospholipid binding protein [32]. However, cell cycle analysis was achieved using propidium iodine fluorescent dye to stoichiometrically stain cell DNA contents allowing quantitation and identification of all cell phase rates; G0-G1, S, G2/M, and pre-G1 [33, 34]. […] For identifying the mode of cell death promoted by 8b within MDA-MB-231/breast cancer cells, apoptosis rate analysis was performed following 48 h exposure time. […] Moreover, the average proportion of Annexin-V stained positive cells (total apoptotic cells) elevated from 1.72% within untreated cells to 18.93% in treated ones (p < 0.001). […] The above provided findings are supported by the previous cell cycle analysis confirming the potentiality of 8b as promising anticancer agent.
Apoptotic assay and cell cycle analysis were proceeded according to previous literatures. In brief, cells were planted in 1.0 × 10^6 cells/flask density for 24 h. Subsequently, 8b was added at its IC50 value and incubated for 48 h. Following incubation, MDA-MB-231 cells were trypsinized, harvested, and fixed according to information cited within Annexin® V-FITC Detection Kit (Cat.#: K101-25, BioVision^TM, Milpitas, CA, USA), for quantifying cell’s DNA contents being treated with 8b relative to control sample using propidium iodide stain (Cat.#: ab139418; Abcam^TM, Cambridge, MA, USA). Finally, flow cytometry analysis was done using BD-FACSCalibur® cell analyzer platform (Becton Dickinson-Biosciences-SG^TM, Singapore, Thailand) to estimate which cell cycle phase, the treated cells would be arrested in, as well as computing the percentage of apoptotic cells.

CCCc1ccc(-c2nn(-c3ccccc3)cc2C=NNC(=O)c2cc3ccccc3[nH]2)cc1 [Compound 8b, N′-((1-phenyl-3-(4-propylphenyl)-1H-pyrazol-4-yl)methylene)-1H-indole-2-carbohydrazide]
Bcl-2 gene expression (Bcl-2 gene): 0.165 folds | cell morphology alterations (A549/lung adenocarcinoma): Comparable cell morphology changes | cell morphology alterations [1]: significant cell morphology alteration, intercellular space dilatation, and cellular shrinkage | DNA fragmentation [2]: Significant DNA fragmentation | influence on necrosis [3]: no influence on the necrosis | early apoptotic cell population (LR quadrant) ([3]; quadrant assignment assumed): 5.09% | late apoptotic cell population (UR quadrant) ([3]; quadrant assignment assumed): 12.02% | necrotic cell population (UL quadrant) ([3]; quadrant assignment assumed): 1.82% | Annexin-V stained positive cells (total apoptotic cells) ([3]; untreated 1.72%): 18.93%
